Measurements taken from US12084434B2 (Scorpion Therapeutics, Inc., priority 2021, dated 2024).
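Further: assay medium was RPMI with 10% FBS and 0.2 units/ml bovine insulin, without phenol red.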

What follows are molecules tested on T47D pAKT (S473), PI3Kα H1047R mutation present (assay: HTRF pAKT-T47D). Details: Homo sapiens, T47D, 1 h, read-out: T47D pAKT IC50 (nM), T47D.1 cells, pAKT (S473) HTRF, 1 hour.
For `Cc1c([C@H](NC(=O)Nc2cnc(N3CC(C(C)(C)O)C3)nc2)C(F)(F)F)oc2c(F)cc(F)cc12` [Compound 206], the IC50 was > 5000 nM.
In the case of `Cc1c([C@@H](NC(=O)Nc2cnc(C(N)=O)nc2)C(C)C)oc2ccc(F)cc12` [Compound 78, (S)-5-(3-(1-(5-fluoro-3-methylbenzofuran-2-yl)-2-methylpropyl)ureido)pyrimidine-2-carboxamide], the IC50 is reported as 1000 to 5000 nM.
For `Cc1c([C@@H](NC(=O)Nc2cnc(NCCCO)nc2)C(C)C)oc2ccc(F)cc12` [Compound 137], the IC50 was < 1000 nM.
With `CNC(=O)c1cc(NC(=O)N[C@H](c2oc3ccc(F)cc3c2C)C(C)C)ccc1OC` [Compound 104] the IC50 was < 1000 nM.
`Cc1c(C(NC(=O)Nc2cnc(N3CCC3)nc2)C(F)(F)F)oc2c(F)cc(F)cc12` (single isomer, unassigned) [Compound 223, 1-(2-(azetidin-1-yl)pyrimidin-5-yl)-3-(1-(5,7-difluoro-3-methylbenzofuran-2-yl)-2,2,2-trifluoroethyl)urea] was tested, and the IC50 was < 1000 nM.
With `Cc1c([C@@H](NC(=O)Nc2cnc(N3CCSCC3)nc2)C(C)C)oc2ccc(F)cc12` [Compound 145, 3-[(1S)-1-(5-fluoro-3-methyl-1-benzofuran-2-yl)-2-methylpropyl]-1-[2-(thiomorpholin-4-yl)pyrimidin-5-yl]urea] the IC50 was < 1000 nM.
With `Cc1c([C@@H](NC(=O)Nc2cnc(NCC(N)=O)nc2)C(C)C)oc2ccc(F)cc12` [Compound 134, (S)-2-((5-(3-(1-(5-fluoro-3-methylbenzofuran-2-yl)-2-methylpropyl)ureido)pyrimidin-2-yl)amino)acetamide] the IC50 was < 1000 nM.
With `COC1CN(c2ncc(NC(=O)N[C@H](c3oc4ccc(F)cc4c3C)C(C)C)cn2)C1` [Compound 138] the IC50 was < 1000 nM.
With `Cc1c([C@@H](NC(=O)Nc2cnc(N3CC4(COC4)C3)nc2)C(F)(F)F)oc2ccc(F)cc12` [Compound 168, (R)-1-(2-(2-oxa-6-azaspiro[3.3]heptan-6-yl)pyrimidin-5-yl)-3-(2,2,2-trifluoro-1-(5-fluoro-3-methylbenzofuran-2-yl)ethyl)urea] the IC50 was < 1000 nM.
For `Cc1c([C@@H](NC(=O)Nc2cnc(N3CC(O)C3)nc2)C(C)C)oc2ccc(F)cc12` [Compound 87, (S)-1-(1-(5-fluoro-3-methylbenzofuran-2-yl)-2-methylpropyl)-3-(2-(3-hydroxyazetidin-1-yl)pyrimidin-5-yl)urea], the IC50 was < 1000 nM.
In the case of `Cc1c([C@@H](NC(=O)Nc2cnc(N3CC[C@@H](O)C3)nc2)C(F)(F)F)oc2c(F)cc(F)cc12` [Compound 208], the IC50 is reported as < 1000 nM.
For `Cc1c([C@@H](NC(=O)Nc2cnc(N3CC(C(N)=O)C3)nc2)C(F)(F)F)oc2c(F)cc(F)cc12` [Compound 211], the IC50 was < 1000 nM.
In the case of `Cc1c([C@@H](NC(=O)Nc2cnc(N3CC(OC(F)F)C3)nc2)C(C)C)oc2ccc(F)cc12` [Compound 167, 1-{2-[3-(difluoromethoxy)azetidin-1-yl]pyrimidin-5-yl}-3-[(1S)-1-(5-fluoro-3-methyl-1-benzofuran-2-yl)-2-methylpropyl]urea], the IC50 is reported as < 1000 nM.
In the case of `Cc1c(C(NC(=O)Nc2cnc(N3CCC(O)CC3)nc2)C(F)(F)F)oc2c(F)cc(F)cc12` (single isomer, unassigned) [Compound 191], the IC50 is reported as 1000 to 5000 nM.
In the case of `Cc1c([C@@H](NC(=O)Nc2cnc(N3C[C@H](O)[C@H]3C)nc2)C(C)C)oc2ccc(F)cc12` (relative stereo) [Compound 149, 3-[(1S)-1-(5-fluoro-3-methyl-1-benzofuran-2-yl)-2-methylpropyl]-1-{2-[(2R*,3R**)-3-hydroxy-2-methylazetidin-1-yl]pyrimidin-5-yl}urea], the IC50 is reported as < 1000 nM.
`Cc1c([C@@H](NC(=O)Nc2cnc(N3CC(F)C3)nc2)C(F)(F)F)oc2ccc(F)cc12` [Compound 95, (R)-1-(2-(3-fluoroazetidin-1-yl)pyrimidin-5-yl)-3-(2,2,2-trifluoro-1-(5-fluoro-3-methylbenzofuran-2-yl)ethyl)urea] was tested, and the IC50 was < 1000 nM.
For `Cc1c([C@@H](NC(=O)Nc2ccc3c(c2)C(=O)OC3)C(C)C)oc2ccc(F)cc12` [Compound 102, 3-[(1S)-1-(5-fluoro-3-methyl-1-benzofuran-2-yl)-2-methylpropyl]-1-(3-oxo-1H-2-benzofuran-5-yl)urea], the IC50 was 1000 to 5000 nM.
With `Cc1c([C@@H](NC(=O)Nc2cnc(NCC(C)(C)O)nc2)C(C)C)oc2ccc(F)cc12` [Compound 142] the IC50 was < 1000 nM.
`Cc1c(C(NC(=O)Nc2cnc(N)nc2)C(F)(F)F)oc2c(Br)cc(F)cc12` (single isomer, unassigned) [Compound 215, 1-(2-aminopyrimidin-5-yl)-3-[1-(7-bromo-5-fluoro-3-methyl-1-benzofuran-2-yl)-2,2,2-trifluoroethyl]urea] showed an IC50 of 1000 to 5000 nM.
With `CNC(=O)c1ncc(NC(=O)N[C@H](c2oc3ccc(F)cc3c2C)C(C)C)cn1` [Compound 77, (S)-5-(3-(1-(5-fluoro-3-methylbenzofuran-2-yl)-2-methylpropyl)ureido)-N-methylpyrimidine-2-carboxamide] the IC50 was 1000 to 5000 nM.
`Cc1c(C(NC(=O)Nc2ccc(N)cc2)C(F)(F)F)oc2c(F)cc(F)cc12` (single isomer, unassigned) [Compound 221, 1-(4-aminophenyl)-3-(1-(5,7-difluoro-3-methylbenzofuran-2-yl)-2,2,2-trifluoroethyl)urea] gave an IC50 of 1000 to 5000 nM.
`Cc1c([C@@H](NC(=O)Nc2cnc(N3CC(C)(O)C3)nc2)C(C)C)oc2ccc(F)cc12` [Compound 96, (S)-1-(1-(5-fluoro-3-methylbenzofuran-2-yl)-2-methylpropyl)-3-(2-(3-hydroxy-3-methylazetidin-1-yl)pyrimidin-5-yl)urea] was tested, and the IC50 was < 1000 nM.
In the case of `Cc1c([C@@H](NC(=O)Nc2cnc(N3CC4(CCCO4)C3)nc2)C(C)C)oc2ccc(F)cc12` [Compound 165, 3-[(1S)-1-(5-fluoro-3-methyl-1-benzofuran-2-yl)-2-methylpropyl]-1-(2-{5-oxa-2-azaspiro[3.4]octan-2-yl}pyrimidin-5-yl)urea], the IC50 is reported as < 1000 nM.
Molecule `Cc1c(C(NC(=O)Nc2cnc(N)nc2)C(F)(F)F)oc2c(C#N)cc(F)cc12` (single isomer, unassigned) [Compound 219, 1-(2-aminopyrimidin-5-yl)-3-[1-(7-cyano-5-fluoro-3-methyl-1-benzofuran-2-yl)-2,2,2-trifluoroethyl]urea] has an IC50 of 1000 to 5000 nM.
With `Cc1c([C@@H](NC(=O)Nc2cnc(N3CCNCC3)nc2)C(C)C)oc2ccc(F)cc12` [Compound 106, (S)-1-(1-(5-fluoro-3-methylbenzofuran-2-yl)-2-methylpropyl)-3-(2-(piperazin-1-yl)pyrimidin-5-yl)urea] the IC50 was 1000 to 5000 nM.
In the case of `Cc1c(C(NC(=O)Nc2cnc(N3CC(S(C)(=O)=O)C3)nc2)C(F)(F)F)oc2c(F)cc(F)cc12` (racemic) [Compound 185, 1-(1-(5,7-difluoro-3-methylbenzofuran-2-yl)-2,2,2-trifluoroethyl)-3-(2-(3-(methylsulfonyl)azetidin-1-yl)pyrimidin-5-yl)urea], the IC50 is reported as 1000 to 5000 nM.

Same assay, conditions: read-out: T47D pAKT IC50; T47D.1 cells, pAKT (S473) HTRF, 1 hour
In the case of `Cc1c(C(NC(=O)Nc2cnc(N3CC(O)C3)nc2)C(F)(F)F)oc2c(Cl)cc(F)cc12` (single isomer, unassigned) [Compound 199, 3-[1-(7-chloro-5-fluoro-3-methyl-1-benzofuran-2-yl)-2,2,2-trifluoroethyl]-1-[2-(3-hydroxyazetidin-1-yl)pyrimidin-5-yl] urea], the IC50 is reported as > 5000 nM.
In the case of `Cc1c(C(NC(=O)Nc2cnc(N3CC(O)C3)nc2)C(F)(F)F)oc2c(Cl)cc(F)cc12` (single isomer, unassigned) [Compound 200, 3-[1-(7-chloro-5-fluoro-3-methyl-1-benzofuran-2-yl)-2,2,2-trifluoroethyl]-1-[2-(3-hydroxyazetidin-1-yl)pyrimidin-5-yl] urea], the IC50 is reported as < 1000 nM.
In the case of `Cc1c(C(NC(=O)Nc2cnc(N3CC(F)C3)nc2)C(F)(F)F)oc2c(F)cc(F)cc12` (single isomer, unassigned) [Compound 226, 1-(1-(5,7-difluoro-3-methylbenzofuran-2-yl)-2,2,2-trifluoroethyl)-3-(2-(3-fluoroazetidin-1-yl)pyrimidin-5-yl)urea], the IC50 is reported as < 1000 nM.
With `C[C@@H]1[C@@H](O)CN1c1ncc(NC(=O)NC(c2cc3cc(F)cc(F)c3o2)C(F)(F)F)cn1` (stereo partly drawn) [Compound 174, 3-[1-(5,7-difluoro-1-benzofuran-2-yl)-2,2,2-trifluoroethyl]-1-{2-[(2R,3S)-3-hydroxy-2-methylazetidin-1-yl]pyrimidin-5-yl}urea] the IC50 was < 1000 nM.
In the case of `Cc1c(C(NC(=O)Nc2cnc(N)nc2)C(F)(F)F)oc2c(C)cc(F)cc12` (single isomer, unassigned) [Compound 213, 1-(2-aminopyrimidin-5-yl)-3-[2,2,2-trifluoro-1-(5-fluoro-3,7-dimethyl-1-benzofuran-2-yl)ethyl]urea], the IC50 is reported as > 5000 nM.
For `Cc1c(C(NC(=O)Nc2cnc(N[C@@H](C)CO)nc2)C(F)(F)F)oc2c(F)cc(F)cc12` (single isomer, unassigned) [Compound 196], the IC50 was < 1000 nM.
In the case of `Cc1c(C(NC(=O)Nc2cnc(N3C[C@@H](O)[C@@H]3C)nc2)C(F)(F)F)oc2c(F)cc(F)cc12` (stereo partly shown) [Compound 175], the IC50 is reported as < 1000 nM.
With `Cc1c(C(NC(=O)Nc2cnc(N[C@H](C)CO)nc2)C(F)(F)F)oc2c(F)cc(F)cc12` (single isomer, unassigned) [Compound 188] the IC50 was < 1000 nM.
`Cc1c([C@H](NC(=O)Nc2cnc(NCC(C)(C)O)nc2)C(F)(F)F)oc2c(F)cc(F)cc12` [Compound 184] was tested, and the IC50 was > 5000 nM.
With `Cc1c(C(NC(=O)Nc2cnc(N)nc2)C(F)(F)F)oc2c(Cl)cc(F)cc12` (racemic) [Compound 178, 1-(2-aminopyrimidin-5-yl)-3-[1-(7-chloro-5-fluoro-3-methyl-1-benzofuran-2-yl)-2,2,2-trifluoroethyl] urea] the IC50 was < 1000 nM.
In the case of `Cc1c(C(NC(=O)Nc2ccc(N)cc2)C(F)(F)F)oc2c(F)cc(F)cc12` (single isomer, unassigned) [Compound 222, 1-(4-aminophenyl)-3-(1-(5,7-difluoro-3-methylbenzofuran-2-yl)-2,2,2-trifluoroethyl)urea], the IC50 is reported as < 1000 nM.
